In patent US20140086939A1, “COMPOSITIONS AND METHODS FOR DETECTING AND TREATING CANCER” (priority 2011, published 2014):
“Also recorded” adds a separate entry of the source.

Key:
STAT3 = molecular target: T1, STAT3 (Mus musculus, UniProt P42227); assay: STAT3 phosphorylation in lysates of dih10 tumors (immunoblot); type: in vivo
T1 construct: from tissue; host or cells: subcutaneous tumors formed by Ikkβf/f or IkkβΔ dih10 cells in C57BL/6 mice

[1] = test system: Ikkβ^f/f and Ikkβ^Δ dih10 cells; assay: Subcutaneous tumor growth of implanted dih10 hepatoma cells in C57BL/6 mice; type: in vivo, mouse
Experimental: FIG. 20. IKKβ deletion in initiated cells enhances proliferation and self-renewal of HCC progenitors. (A) DEN-induced HCC (dih) cell strains from Ikkβ^f/f mice were cultured and infected with Adv-GFP or Adv-Cre. Whole cell lysates of infected dih10 cells were immunoblotted for IKKβ (bottom panel). The cells were further cultured without serum on Petri dishes to form hepatospheres (upper panels). Numbers of 1^0 and 2^0 hepatospheres formed per 100 plated cells were determined (n=3; *: p<0.05). Magnification bar=100 μm. (B) Ikkβ^f/f dih10 cells were infected with an empty retrovirus (vector) or a retrovirus expressing IκBα super-repressor (SR). Stably transfected cells were selected and cultured as above and hepatosphere formation was analyzed (n=3; *: p<0.05). (C, D) IKKβ expressing (Ikkβ^f/f) and deficient (Ikkβ^Δ) dih10 cells (2.5×10^6 each) were s.c. injected into 8 weeks old C57BL/6 mice. (C) Allograft volume was measured weekly (n=5; *: p<0.01). Dissected tumors are shown on the right. (D) BrdU incorporation into tumors was determined (n=5; *: p<0.05). (E) Ikkβ^f/f and Ikkβ^Δ dih12 cells were labeled with dsRed and 4×10^5 cells were seeded into MUP-uPA mouse livers. Relative amounts of dsRed DNA in transplanted MUP-uPA livers were determined by real-time PCR 3 weeks post-inoculation and normalized to actin DNA as a measurement of cell growth (n=5; *: p<0.05). (F) Ikkβ^Δ dih10 cells were reconstituted with a control vector or WT IKKβ expression vector and were s.c. injected into 8 weeks old C57BL/6 mice. Allograft volume was measured weekly (n=5; *: p<0.01). (G) Ikkβ^f/f and IkkβΔ dih10 cells were s.c. injected as above. Starting from day 2, mice were treated daily with MLN120B or vehicle by oral gavage. Tumor volume was measured weekly (n=5; *: p<0.01, f/f/control vs. f/f/MLN by one-way ANOVA). Please also see FIG. 27.
(§1) FIG. 22. ROS-mediated SHP1/2 inhibition in IKKβ-deficient HCCs correlates with STAT3 activation and accelerated tumor growth. (A) Tumors derived from Ikkβ^f/f (f/f) and Ikkβ^Δ (Δ) dih10 cells were collected and lysed. Tumor lysates were immunoprecipitated with an anti-JAK2 antibody and examined for JAK2 tyrosine phosphorylation with PY20 antibody. Tumor lysates were also used for immunoblot analyses with the indicated antibodies. (B) SHP1 and SHP2 were immunoprecipitated from above tumor lysates and their phosphatase activities were measured (n=4; *: p<0.05). (C) Fresh frozen sections of HCCs from transplanted MUP-uPA mice were analyzed for superoxide accumulation by DHE staining. Fluorescence intensity in several fields was quantitated by ImageJ and relative average increases in fluorescent intensity are shown (n=3; *: p<0.01). Magnification bar=100 μm. (D-F) Ikkβ^f/5 (f/f) and Ikkβ^Δ (Δ) dih10 cells […] each were s.c. implanted into 8 weeks old C57BL/6 mice. Starting on day 2, the mice were switched to a diet containing vehicle or BHA (0.7%) for 6 weeks. (D) Tumors were collected from BHA treated and untreated mice, lysed and SHP1/2 phosphatase activities were measured. The data were plotted as SHP1/2 phosphatase activities in Ikkβ^Δ tumors relative to activities in Ikkβ^f/f tumors (n=4; *: p<0.05). (E) Tumor lysates were used to determine JNK kinase activity and STAT3 phosphorylation. (F) Tumor volume was measured weekly (n=5; p<0.01, Δ/ctrl vs. Δ/BHA by one way ANOVA). Please also see FIG. 29.
FIG. 30. STAT3 is required for HCC formation and growth. (A-D) Ikkβ^f/f (f/f) and Ikkβ^Δ (Δ) dih10 cells were s.c. implanted into 8 weeks old C57BL/6 mice. (A) Starting on day 2, the mice were i.p. injected with vehicle (ctrl) or 0.5 mg/mouse AG490 daily. Tumor volume was measured (n=5; p<0.05, f/f/vehicle vs. f/f/AG490; p<0.01, Δ/vehicle vs. Δ/AG490 by one way ANOVA). (B) After 6 weeks, tumors were removed, lysed and analyzed by immunoblotting with the indicated antibodies. […] (D) After 6 weeks, tumors were removed and analyzed as above. […]

[2] = test system: many different types of cancer cells transplanted into mice; details: in vivo; cited from earlier work
SHP1 and SHP2 = assay: SHP1/2 phosphatase activities in lysates of dih10 tumors; type: in vivo, mouse; details: diet containing BHA (0.7%) for 6 weeks
Source text: as §1, with “Starting on day 2, the mice were switched to a diet containing vehicle or BHA (0.7%) for 6 weeks.” left out, “The data were plotted as SHP1/2 phosphatase activities in Ikkβ^Δ tumors relative to activities in Ikkβ^f/f tumors (n=4; *: p<0.05). (E) Tumor lysates were used to determine JNK kinase activity and STAT3 phosphorylation.” left out, “Please also see FIG. 29.” left out
(§2) RNA extraction and q-PCR were described (Sakurai et al., 2006). […] SHP1/2 phosphatase activities were determined as described (Lee and Esselman, 2002).

liver [3] = details: cited from earlier work
JAK2 = JAK2 phosphorylation in IKKβ-deficient tumors; type: in vivo, mouse; details: BHA treatment of tumor-bearing mice
Source text: as §1, with “The data were plotted as SHP1/2 phosphatase activities in Ikkβ^Δ tumors relative to activities in Ikkβ^f/f tumors (n=4; *: p<0.05). (E) Tumor lysates were used to determine JNK kinase activity and STAT3 phosphorylation.” left out, “Please also see FIG. 29.” left out

JNK = JNK kinase activity in lysates of dih10 tumors; type: in vivo, mouse; details: diet containing BHA (0.7%) for 6 weeks
Source text: as §1, with “Starting on day 2, the mice were switched to a diet containing vehicle or BHA (0.7%) for 6 weeks.” left out, “The data were plotted as SHP1/2 phosphatase activities in Ikkβ^Δ tumors relative to activities in Ikkβ^f/f tumors (n=4; *: p<0.05). (E) Tumor lysates were used to determine JNK kinase activity and STAT3 phosphorylation.” left out, “Please also see FIG. 29.” left out
as §2

liver [4] = details: cited from earlier work; remark: listed apart in the source
[5] = test system: STAT3 phosphorylation in HepG2 cells; assay: IL-6 induced STAT3 phosphorylation by immunoblotting in HepG2 cells; type: cell-based; details: human liver cancer cell line (HepG2) serum starved 48 hrs; 20 μM MLN120B; 10 ng/ml IL-6 30 min
Experimental: (§3) FIG. 28. IKKβ ablation enhances STAT3 activation. (A) Ikkβ^f/f and Ikkβ^Δ dih10 cells were cultured under hepatosphere-forming conditions for 3 days and treated with 10 ng/ml of IL-6 for the indicated times. Whole cell lysates were analyzed by immunoblotting for STAT3 phosphorylation. (B) Ikkβ^f/f and Ikkβ^Δ dih10 cells were cultured under hepatosphere-forming conditions for 3 days and treated with 10 ng/ml of IL-22 for 30 min. STAT3 phosphorylation was analyzed as above. (C) Ikkβ^Δ dih10 cells were cultured under hepatosphere-forming conditions and infected with a control Adv or an Adv vector expressing constitutively active IKKβ^EE. The cells were treated with 10 ng/ml of IL-6 for 15 min and STAT3 phosphorylation was analyzed. (D) Ikkβ^f/f dih10 cells and HepG2 cells were serum starved for 48 hrs and treated with 20 μM MLN120B for the indicated times. The cells were then stimulated with 10 ng/ml of IL-6 for 30 min and STAT3 phosphorylation was analyzed by immunoblotting. Relative activities (RA) of STAT3 phosphorylation were determined by densitometry. (E) Ikkβ^f/f (f/f) and Ikkβ^Δ (Δ) HCCs from transplanted MUP-uPA mice were collected and total RNA was extracted. Expression of IL-6 and IL-22 mRNAs was measured by RT PCR.
as §2

[6] = test system: STAT3 phosphorylation in Ikkβ^f/f dih10 cells; assay: IL-6 induced STAT3 phosphorylation by immunoblotting in dih10 cells; type: cell-based, mouse; details: dih cells serum starved 48 hrs; 20 μM MLN120B; 10 ng/ml IL-6 30 min
Experimental: as §3, §2

Huh-7 = details: 5 mg/kg given every other day; cited from earlier work
[7] = test system: human breast cancer cell line with constitutive STAT3 activity; details: in vivo; cited from earlier work
[8] = AG490 0.5 mg/mouse i.p. daily from day 2
[9] = diet containing BHA (0.7%) for 6 weeks
[10] = s.c. dih10 in C57BL/6, MLN120B daily by oral gavage from day 2

T1 sequence (P42227 whole entry): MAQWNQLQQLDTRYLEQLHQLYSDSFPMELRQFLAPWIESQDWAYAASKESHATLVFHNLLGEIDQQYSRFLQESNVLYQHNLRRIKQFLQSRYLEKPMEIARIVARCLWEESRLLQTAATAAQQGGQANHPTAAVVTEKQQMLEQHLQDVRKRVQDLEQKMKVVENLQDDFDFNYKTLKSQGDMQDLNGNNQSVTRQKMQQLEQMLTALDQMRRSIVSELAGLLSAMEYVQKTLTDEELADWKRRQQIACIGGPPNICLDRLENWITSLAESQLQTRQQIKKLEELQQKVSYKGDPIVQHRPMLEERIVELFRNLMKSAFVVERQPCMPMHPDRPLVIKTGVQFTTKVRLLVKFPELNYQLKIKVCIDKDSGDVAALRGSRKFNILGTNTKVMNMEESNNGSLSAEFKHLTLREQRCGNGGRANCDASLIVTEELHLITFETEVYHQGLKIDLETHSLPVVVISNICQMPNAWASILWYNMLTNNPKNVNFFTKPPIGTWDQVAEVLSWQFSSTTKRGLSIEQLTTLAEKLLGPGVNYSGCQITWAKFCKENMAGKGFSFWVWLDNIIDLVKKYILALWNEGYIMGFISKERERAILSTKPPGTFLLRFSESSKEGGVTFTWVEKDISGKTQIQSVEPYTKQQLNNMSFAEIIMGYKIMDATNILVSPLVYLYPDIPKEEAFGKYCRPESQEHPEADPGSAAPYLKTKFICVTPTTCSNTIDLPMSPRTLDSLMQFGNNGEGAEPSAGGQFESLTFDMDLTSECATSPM

In the case of `N#C/C(=C/c1ccc(O)c(O)c1)C(=O)NCc1ccccc1` [AG490], the “STAT3 activity in dih cell tumors” value (STAT3) is reported as “effective inhibition”, the “STAT3 phosphorylation in tumors” value (STAT3; AG490 0.5 mg/mouse i.p. daily, tumors after 6 weeks, both IKKβ status) is reported as “inhibited STAT3 phosphorylation regardless of IKKβ status” and the “in vivo tumorigenic growth of dih cells” value [1] is reported as “effective inhibition”. The “Ikkβ^f/f tumorigenic growth” value [1, 8] was “more modest effect” and the “growth of Ikkβ^Δ subcutaneous tumors” value [1, 8] was “inhibited the growth”.

For `Cc1cc(Nc2nc(N[C@@H](C)c3ncc(F)cn3)ncc2Cl)n[nH]1` [AZD1480], the “tumorigenic growth of cancer cells transplanted into mice” value [2] is given as “Effective inhibition”.

For `COc1ccc(O)c(C(C)(C)C)c1` [BHA, butylated hydroxyanisole], the “SHP1/2 phosphatase activities in IKKβ-deficient tumors” value (SHP1 and SHP2) is listed as “restores SHP1/2 activity; also recorded: completely restored”, the “liver damage, compensatory proliferation and hepatocarcinogenesis” value (liver [3]; Ikkβ^Δhep and Ikkγ^Δhep mutant mice, BHA consumption) is listed as “reversed” and the “ROS accumulation in the liver” value (liver [3]; dietary administration) is listed as “can be prevented”. For the same molecule, the “JAK2 phosphorylation in IKKβ-deficient tumors” value (JAK2) was “reduces”, the “STAT3 phosphorylation in tumors” value (STAT3; [9]) was “reduced” and the “JNK activity in tumors” value (JNK) was “reduced JNK activity”. For the same molecule, the “Ikkβ^Δ tumor growth” value [1, 9] was “inhibits tumor growth; also recorded: reduced Ikkβ^Δ tumor growth to a level that was similar to that of Ikkβ^f/f tumors in untreated mice”.

In the case of `CCN(CC)N=O` [DEN, diethyl nitrosamine], the HCC induction (liver [4]; male mice older than 4 weeks of age) is listed as “no longer effective in HCC induction on its own” and the “HCC induction, fraction of male mice” value (liver [4]; single dose to two-weeks-old mice) is listed as 100%.

With `COc1c(Cl)cc2c([nH]c3cnccc32)c1NC(=O)c1cccnc1C` [MLN120B] the “IL-6 induced STAT3 activation” value [5] was “enhanced IL-6 induced STAT3 activation”, the “IL-6 induced STAT3 activation” value [6] was “enhanced IL-6 induced STAT3 activation” and the “tumorigenic growth (tumor volume) of Ikkβ^f/f dih cells” value [1, 10] was “enhanced tumorigenic growth”. The “tumorigenic growth (tumor volume) of Ikkβ^Δ dih cells” value [1, 10] was “not Ikkβ^Δ cells”.

In the case of `Cc1ccc(S(=O)(=O)OCC(=O)Nc2ccc(C(=O)O)c(O)c2)cc1` [S3I-201], the “STAT3 tyrosine phosphorylation in Huh-7 xenografts” value (Huh-7) is given as “inhibited”, the “tumor growth of Huh-7 xenografts” value (Huh-7) is given as “inhibited” and the “tumor growth of breast cancer xenografts” value [7] is given as “inhibition of tumor growth”. For the same molecule, the “in vivo tumorigenic growth of dih cells” value [1] was “effective inhibition”.
